{"source": "patent US3962282A", "about": "“Juvenile hormone mimics” (priority 1974, dated 1976)", "key": {"Tenebrio molitor pupae": {"test_system": "Tenebrio molitor pupae", "assay": "topical application to Tenebrio molitor pupae, maturation inhibition", "assay_type": "in vivo", "details": "rating scale 0-4", "in_short": "(§1)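 Compounds applied topically, 1 μL acetone solution at 10%, 1% or 0.5%, to ten specimens per insect per concentration, alongside acetone and untreated controls; scored after about 8–10 days. Juvenile/adult characteristics rated 0–3 (Tenebrio 0–4), ≥2 meaning unable to reproduce; unreported specimens died during metamorphosis.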"}, "milkweed bug": {"test_system": "milkweed bug", "assay": "topical application to milkweed bug, fourth nymphal stage, maturation inhibition", "assay_type": "in vivo", "details": "rating scale 0-3", "in_short": "as §1"}, "wax moth": {"test_system": "wax moth", "assay": "topical application to wax moth, fifth larval stage, maturation inhibition", "assay_type": "in vivo", "in_short": "as §1"}, "Mexican bean beetle": {"test_system": "Mexican bean beetle", "assay": "topical application to Mexican bean beetle, fourth larval stage, maturation inhibition", "assay_type": "in vivo", "details": "rating scale 0-3", "in_short": "as §1"}, "[1]": {"test_system": "Aedes aegypti mosquito larvae", "assay": "mosquito larvae in aqueous solutions, adult emergence", "assay_type": "in vivo", "details": "for number of adults, Jar 1 Dead / number of adults, Jar 1 Living / number of adults, Jar 2 Dead / number of adults, Jar 2 Living: 13 days", "protocol": "Two compounds, 7,8-epoxy-4-ethyl-8-methyl-1-(3,4-methylenedioxyphenyl)-3-decene and 2,6-diemthyl-9-(3,4-methylenedioxyphenyl)-2,6-nonadiene, were tested against Aedes aegypti mosquito larvae in aqueous solutions at concentrations of 10, 5, 2.5. 1.25 and 0.625 ppm. each. Ninety milliliters of each solution were placed in a pint jar and 30 five-day-old mosquito larvae were added to each jar. Two tests were run at each concentration and control tests employing only solvent with no compound were also run. Food was added to each jar, the jars were covered with cloths, and maintained at 29°C. until adults emerged in the control jars. The number of adults in the test jars was determined."}, "Southern corn rootworm": {"test_system": "Southern corn rootworm", "assay": "Southern corn rootworm larvae in treated petri dishes, adult emergence", "assay_type": "in vivo, Diabrotica undecimpunctata", "details": "21 days", "protocol": "Petri dishes containing 150 g. of sand were autoclaved for one hour. Corn seed which had been soaked overnight was rinsed first with a solution of 10 percent alcohol, 20 percent chlorox, and 70 percent water for 15 minutes and then with clear water. Three to four seeds were placed in each dish. The dishes were then moistened with 15 ml. of a 100 ppm. solution of a fungicide. After 24 hours, ten Southern corn rootworm eggs (Diabrotica undecimpunctata) were placed in each dish. The dishes were maintained in an incubator in the dark for 14 days. New petri dishes were prepared as described except that the eggs were not added and 2,6-diemthyl-9-(3,4-methylenedioxyphenyl)-2,6-nonadiene was added at a rate of 100 ppm. or 10 ppm. Ten dishes at each treatment rate and ten controls were used. Three larvae from the incubated dishes were placed in each of the treated dishes and each control dish. […] There were a total of 15 adults in the ten dishes treated at 10 ppm. and a total of 19 adults in the ten control dishes."}, "German cockroach nymphs": {"test_system": "German cockroach nymphs", "assay": "topical application to 50-day-old German cockroach nymphs", "assay_type": "in vivo, Blattella germanica", "source_text": "In another test, the nonadiene was applied topically to 50-day-old German cockroach nymphs. The compound was applied in acetone as a […], or 0.5 percent solution. Acetone controls and nontreated controls were also run. The roaches were then maintained in the laboratory until the controls reproduced. […] The 1 percent and 0.5 percent treatments did reproduce."}, "[2]": {"test_system": "Mexican bean beetle larvae", "assay": "soil drench of bean plants with Mexican bean beetle larvae", "assay_type": "in vivo", "details": "scale 0-3", "protocol": "Bean plants of the Bountiful variety were placed in soil and allowed to grow with 10 Mexican bean beetle larvae on each cluster. To the soil around each plant was added 200 ml. of a solution containing 2,6-dimethyl-9-(3,4-methylenedioxyphenyl)-2,6-nonadiene. The soil was then covered with aluminum foil to prevent the larvae from coming in contact with the compound. Three different concentrations of compound were applied. These were prepared from a 48 percent emulsifiable concentrate by diluting 10 ml., 4 ml., and 2 ml. of the concentrate to a volume of 200 ml. with water. A control using 200 ml. of just water and another using no drench were also run. The results are tabulated below using the same rating system as described earlier for the primary screening test agains Mexican bean beetle."}, "[3]": {"test_system": "Mexican bean beetle larvae", "assay": "spray of caged flats of bean plants with Mexican bean beetle larvae", "assay_type": "in vivo", "protocol": "Six-foot by 12-foot caged flats were planted with Bountiful variety bean plants in two 12-foot rows. Into each cage were introduced 100 Mexican bean beetle larvae. Each cage was then sprayed with 500 ml. of a solution prepared by diluting a 48 percent emulsifiable concentrate of 2,6-dimethyl-9-(3,4-methylenedioxyphenyl)-2,6-nonadiene to the desired concentration. Two flats were treated at each concentration and two were used as controls."}}, "data": [{"smiles": "CC(C)=CCCC(C)=CCCc1ccc2c(c1)OCO2", "note": "[2,6-dimethyl-9-(3,4-methylenedioxyphenyl)-2,6-nonadiene]", "values": [{"measurement": "number of specimens in rating 4", "setting": "Tenebrio molitor pupae; 0.5%", "value": 9, "unit": "specimens"}, {"measurement": "number of specimens in rating 4", "setting": "Tenebrio molitor pupae; 1%", "value": 10, "unit": "specimens"}, {"measurement": "number of specimens in rating 4", "setting": "Tenebrio molitor pupae; 10%", "value": 10, "unit": "specimens"}, {"measurement": "number of specimens in rating 3", "setting": "milkweed bug; 0.5%", "value": 10, "unit": "specimens"}, {"measurement": "number of specimens in rating 3", "setting": "milkweed bug; 1%", "value": 10, "unit": "specimens"}, {"measurement": "number of specimens in rating 3", "setting": "milkweed bug; 10%", "value": 5, "unit": "specimens"}, {"measurement": "number of specimens in rating 0", "setting": "wax moth; 0.5%, rating scale 0-3", "value": 8, "unit": "specimens"}, {"measurement": "number of specimens in rating 1", "setting": "wax moth; 0.5%, rating scale 0-3", "value": 1, "unit": "specimens"}, {"measurement": "number of specimens in rating 0", "setting": "wax moth; 1%, rating scale 0-3", "value": 9, "unit": "specimens"}, {"measurement": "number of specimens in rating 3", "setting": "wax moth; 1%, rating scale 0-3", "value": 1, "unit": "specimens"}, {"measurement": "number of specimens in rating 0", "setting": "wax moth; 10% in acetone, 1 microliter topical, rating scale 0 (no effect) to 3 (maximum)", "value": 7, "unit": "specimens"}, {"measurement": "number of specimens in rating 1", "setting": "wax moth; 10%, rating scale 0-3", "value": 2, "unit": "specimens"}, {"measurement": "number of specimens in rating 3", "setting": "wax moth; 10%, rating scale 0-3", "value": 1, "unit": "specimens"}, {"measurement": "number of specimens in rating 3", "setting": "Mexican bean beetle; 0.5%", "value": 9, "unit": "specimens"}, {"measurement": "number of specimens in rating 3", "setting": "Mexican bean beetle; 1%", "value": 10, "unit": "specimens"}, {"measurement": "number of specimens in rating 3", "setting": "Mexican bean beetle; 10%", "value": 1, "unit": "specimens"}, {"measurement": "number of adults, Jar 1 Dead", "setting": "[1]; 0.625 ppm", "value": 21}, {"measurement": "number of adults, Jar 1 Living", "setting": "[1]; 0.625 ppm", "value": 1}, {"measurement": "number of adults, Jar 2 Dead", "setting": "[1]; 0.625 ppm", "value": 21}, {"measurement": "number of adults, Jar 2 Living", "setting": "[1]; 0.625 ppm", "value": 0}, {"measurement": "number of adults, Jar 1 Dead", "setting": "[1]; 1.25 ppm", "value": 1}, {"measurement": "number of adults, Jar 1 Living", "setting": "[1]; 1.25 ppm", "value": 3}, {"measurement": "number of adults, Jar 2 Dead", "setting": "[1]; 1.25 ppm", "value": 10}, {"measurement": "number of adults, Jar 2 Living", "setting": "[1]; 1.25 ppm", "value": 1}, {"measurement": "number of adults, Jar 1 Dead", "setting": "[1]; 2.5 ppm", "value": 0}, {"measurement": "number of adults, Jar 1 Living", "setting": "[1]; 2.5 ppm", "value": 0}, {"measurement": "number of adults, Jar 2 Dead", "setting": "[1]; 2.5 ppm", "value": 1}, {"measurement": "number of adults, Jar 2 Living", "setting": "[1]; 2.5 ppm", "value": 0}, {"measurement": "number of adults, Jar 1 Dead", "setting": "[1]; 5 ppm", "value": 0}, {"measurement": "number of adults, Jar 1 Living", "setting": "[1]; 5 ppm", "value": 0}, {"measurement": "number of adults, Jar 2 Dead", "setting": "[1]; 5 ppm", "value": 0}, {"measurement": "number of adults, Jar 2 Living", "setting": "[1]; 5 ppm", "value": 0}, {"measurement": "number of adults, Jar 1 Dead", "setting": "[1]; 10 ppm", "value": 0}, {"measurement": "number of adults, Jar 1 Living", "setting": "[1]; 10 ppm", "value": 0}, {"measurement": "number of adults, Jar 2 Dead", "setting": "[1]; 10 ppm", "value": 0}, {"measurement": "number of adults, Jar 2 Living", "setting": "[1]; 10 ppm", "value": 0}, {"measurement": "control", "setting": "[1]; at concentrations as low as 2.5 ppm", "value": 100, "unit": "%"}, {"measurement": "live adults in the jars", "setting": "[1]; nonadiene at 10, 5, and 2.5 ppm, decene at any concentration", "value": "never any live adults"}, {"measurement": "total adults in the ten dishes", "setting": "Southern corn rootworm; 10 ppm, 19 adults in ten control dishes", "value": 15, "unit": "adults"}, {"measurement": "adults emerged", "setting": "Southern corn rootworm; 100 ppm", "value": "no adults had emerged"}, {"measurement": "reproduction", "setting": "German cockroach nymphs; 0.5 percent", "value": "did reproduce"}, {"measurement": "reproduction", "setting": "German cockroach nymphs; 1 percent", "value": "did reproduce"}, {"measurement": "reproduction", "setting": "German cockroach nymphs; 10 percent solution", "value": "did not reproduce"}, {"measurement": "wing formation", "setting": "German cockroach nymphs; 10 percent solution", "value": "normal wing formation"}, {"measurement": "number in rating 0", "setting": "[2]; 2 ml. concentrate/200 ml.", "value": 8}, {"measurement": "number in rating 3", "setting": "[2]; 2 ml. concentrate/200 ml.", "value": 2}, {"measurement": "number in rating 0", "setting": "[2]; 4 ml. concentrate/200 ml.", "value": 2}, {"measurement": "number in rating 3", "setting": "[2]; 4 ml. concentrate/200 ml.", "value": 8}, {"measurement": "number in rating 0", "setting": "[2]; 10 ml. concentrate/200 ml.", "value": 1}, {"measurement": "number in rating 3", "setting": "[2]; 10 ml. concentrate/200 ml.", "value": 9}, {"measurement": "% Control", "setting": "[3]; 0.1 lbs./acre", "value": 13, "unit": "%"}, {"measurement": "% Control", "setting": "[3]; 0.2 lbs./acre", "value": 71.5, "unit": "%"}, {"measurement": "% Control", "setting": "[3]; 0.4 lbs./acre", "value": 75.5, "unit": "%"}, {"measurement": "% Control", "setting": "[3]; 0.8 lbs./acre", "value": 98.5, "unit": "%"}]}]}
